Laboratory results: article PMC7573564, “The Sensing Liver: Localization and Ligands for Hepatic Murine Olfactory and Taste Receptors” (Frontiers in Physiology, 2020)
Entries after “also recorded” stand apart in the source; their conditions may differ. Blank lines part the entries; values can stand above or below the compound they belong to.

How the values were obtained:
Olfr177 = Olfr177 (Mus musculus, UniProt E9Q7W1); assay: cAMP-dependent dual luciferase reporter assay, Olfr177 expressed in HEK293T cells; format: cell-based; settings: for Olfr177 activation (cAMP response, Firefly:Renilla), in words: HEK293T cells expressing Olfr177; for EC50: HEK293T cells expressing Olfr177, Firefly:Renilla ratio, 4 h, dose response of at least 6 concentrations, read-out: EC50 for activation of Olfr177
Sequence of Olfr177 (E9Q7W1 entry or part of it): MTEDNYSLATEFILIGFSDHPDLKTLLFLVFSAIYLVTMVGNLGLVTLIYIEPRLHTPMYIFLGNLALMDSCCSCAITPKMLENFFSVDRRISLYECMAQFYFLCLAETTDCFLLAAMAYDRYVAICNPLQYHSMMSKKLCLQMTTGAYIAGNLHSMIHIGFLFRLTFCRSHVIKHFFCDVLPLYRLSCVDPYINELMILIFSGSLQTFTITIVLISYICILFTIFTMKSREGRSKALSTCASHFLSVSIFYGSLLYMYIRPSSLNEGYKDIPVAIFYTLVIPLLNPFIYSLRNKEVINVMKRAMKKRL
From the text: (§1) For ORs whose trafficking conditions could be established as described above, an unbiased ligand screen using a dual-luciferase reporter assay (Promega) was used to identify potential ligands. Briefly, ORs were transiently transfected (Lipofectamine 2000, Invitrogen) in triplicate into HEK293T cells along with constructs encoding for CREB-dependent luciferase (Firefly) and a constitutively expressed luciferase (Renilla), along with any accessory proteins previously established to be required for effective cell-surface trafficking. Additional surface labeling experiments were performed with the Firefly and Renilla constructs to ensure effective trafficking was not lost under these transfection conditions. OR activation leads to a rise in cAMP which drives an increase in Firefly luciferase expression. Firefly activity is normalized to the activity of the Renilla luciferase to control for variation in cell number and transfection efficiency. Data were collected using a FLUOstar Omega automated plate reader (BMG LabTech, Cary, NC, United States). Cells were allowed to incubate for at least 30 min in CD293 minimal media, and were then bathed with potential odorants diluted in minimal media for 4 h before measuring Firefly and Renilla-derived luminescence. Initially, screening was performed using odorant mixes that are grouped mainly by functional groups (BzB: nonanal, heptanal, valeraldehyde; BzC: carvone, eugenol, cinnamaldehyde; MA: amyl acetate, 3-octanone, acetophenone; OXLK: 2,3-butanedione, pyruvaldehyde, acetic acid, 1,2-ethanedithiol, 2-butanone; THI-DI: 1,6-hexanedithiol, 1,2-ethanedithiol, 2-methyl-1-propanethiol, 1,2-butanedithiol, 2,3-butanedithiol). These mixtures are known to elicit activation of a large number of olfactory sensory neurons and thus cover a wide range of ‘odorant space’ ([Pluznick et al., 2013]), followed by any known ligands to ORs in the same family as those being tested, as well as physiologically relevant substances. A complete list of chemicals used for screening is found in Supplementary Table 1 and all chemicals tested were obtained from Sigma or Fisher Scientific. To begin, all compounds screened were tested at a minimum of two concentrations (100–300 μm and 1–5 mM) to cover a wide range of potential activation. For each assay, Olfr78 or Olfr1393 and known activators of these receptors (Propionate and Cycloheptanol, respectively) were used as positive controls. In order to determine specific activation, potential activators of one receptor were also tested on at least one other OR simultaneously. Negative controls were performed with both media, and media containing DMSO. […] A significant rise in Firefly:Renilla over baseline was determined by multiple T-Tests ([…] deemed significant).

Olfr57 = Olfr57 (Mus musculus, UniProt Q8VGU7); assay: cAMP-dependent dual luciferase reporter assay, Olfr57 expressed in HEK293T cells; format: cell-based; settings: for Olfr57 activation (cAMP-mediated response), in words: HEK293T cells expressing Olfr57; for EC50: HEK293T cells expressing Olfr57, Firefly:Renilla ratio, 4 h, dose response of at least 6 concentrations, read-out: EC50 for activation of Olfr57
Sequence of Olfr57 (Q8VGU7 entry or part of it): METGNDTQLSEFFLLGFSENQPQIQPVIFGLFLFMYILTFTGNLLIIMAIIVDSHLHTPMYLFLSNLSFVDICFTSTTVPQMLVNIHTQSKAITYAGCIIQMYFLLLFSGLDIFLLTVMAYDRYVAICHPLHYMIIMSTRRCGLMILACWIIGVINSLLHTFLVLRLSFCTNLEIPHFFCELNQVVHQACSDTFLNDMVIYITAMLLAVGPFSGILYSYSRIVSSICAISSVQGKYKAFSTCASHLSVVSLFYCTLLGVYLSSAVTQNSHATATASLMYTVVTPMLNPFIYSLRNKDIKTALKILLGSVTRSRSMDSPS
From the text: as §1

Candida albicans = tested on: Candida albicans; set-up: method as in Manoharan et al., 2017; settings: ref Manoharan et al., 2017; cited from earlier work
[1] = tested on: Olfr16 and its human homolog, OR10J5; set-up: method as in von der Weid et al., 2015; Tong et al., 2017; settings: ref von der Weid et al., 2015; Tong et al., 2017; cited from earlier work
CYP2A6 = tested on: CYP2A6; set-up: method as in Gyoubu and Miyazawa, 2007; Miyazawa and Gyoubu, 2007; settings: ref Gyoubu and Miyazawa, 2007; cited from earlier work
[2] = tested on: Olfr78 and its human homolog, OR51E2; set-up: method as in Pluznick et al., 2013; settings: ref Pluznick et al., 2013; cited from earlier work
MOR139-1 = tested on: MOR139-1; set-up: method as in Hiroaki Matsunami, 2010; settings: ref Hiroaki Matsunami, 2010; cited from earlier work
phosphodiesterase = tested on: phosphodiesterase; set-up: method as in Parra, 2012; settings: ref Parra, 2012; cited from earlier work
heme oxygenase = tested on: heme oxygenase; set-up: method as in Parra, 2012; settings: hepatocellular carcinoma line (HepG2); ref Parra, 2012; cited from earlier work
OR5K1 = tested on: OR5K1; set-up: method as in Wilkin Françoise et al., 2015; settings: ref Wilkin Françoise et al., 2015; cited from earlier work
Olfr544 = tested on: Olfr544; set-up: method as in Abaffy et al., 2007; Kang et al., 2015; Thach et al., 2017; settings: ref Abaffy et al., 2007; Kang et al., 2015; Thach et al., 2017; cited from earlier work

Olfr177 activation (cAMP response, Firefly:Renilla), in words (Olfr177): failed to plateau
Compound: Cc1cnc(C)c(C)n1 [2,3,5-trimethylpyrazine]

Compound: C=C1CCC2CC1C2(C)C (centres unmarked) [pinene]
Olfr57 activation (cAMP-mediated response), in words (Olfr57): did not elicit a cAMP-mediated response; also recorded: non-activators

Compound: CC1(C)C2CCC1(C)C(O)C2 (centres unmarked) [borneol]
antibiofilm and antihyphal properties (Candida albicans): antibiofilm and antihyphal properties | EC50 (Olfr57): 240 µM

Compound: CC(C)[C@]12CC(=O)[C@H](C)[C@H]1C2 [thujone]
Olfr57 activation (cAMP-mediated response), in words (Olfr57): did not elicit a cAMP-mediated response; also recorded: non-activators

EC50 (Olfr57): 234 µM
Compound: CC12CCC(CC1)C(C)(C)O2 [eucalyptol]

Compound: CC(=O)c1ccccc1 [Acetophenone]
Activation of Olfr16 and OR10J5 [1]: activated

Compound: C=C1C2CCC(C2)C1(C)C (centres unmarked) [camphene]
Olfr57 activation (cAMP-mediated response), in words (Olfr57): did not elicit a cAMP-mediated response; also recorded: non-activators

Compound: O=C1CC2CC[C@H]1C2 [norcamphor]
Olfr57 activation (cAMP-mediated response), in words (Olfr57): did not elicit a cAMP-mediated response; also recorded: non-activators

Compound: CC12CCC(C1)C(C)(C)C2=O [(1R)-(-)-fenchone]
metabolized in the liver by microsomal enzyme CYP2A6 (CYP2A6): metabolized | antibiofilm and antihyphal properties (Candida albicans): antibiofilm and antihyphal properties | EC50 (Olfr57): 94 µM

Compound: CC(=O)/C=C/C1=C(C)CCCC1(C)C [β-ionone]
Response of Olfr78 and OR51E2 [2]: respond

Compound: CC(C)(O)CCCC1=CCC(C=O)CC1 (centres unmarked) [lyral]
Activation of Olfr16 and OR10J5 [1]: activated

Compound: (1R)-(+)-camphor
Response of MOR139-1 (MOR139-1): respond | antibiofilm and antihyphal properties (Candida albicans): antibiofilm and antihyphal properties | Olfr57 activation (cAMP-mediated response), in words (Olfr57): weakly activate

Compound: c1cnccn1 [pyrazine]
Olfr177 activation (cAMP response, Firefly:Renilla), in words (Olfr177): did not elicit OR activation

EC50 (Olfr57): 45 µM
Compound: CC12CCC(C1)C(C)(C)C2O (centres unmarked) [fenchyl alcohol]
antibiofilm and antihyphal properties (Candida albicans): antibiofilm and antihyphal properties

Olfr177 activation (cAMP response, Firefly:Renilla), in words (Olfr177): significant increase | EC50 (Olfr177): 1070 µM
Compound: CCc1ncc(C)nc1C [2-ethyl-3,5-dimethylpyrazine]
phosphodiesterase activity (phosphodiesterase): inhibit | heme oxygenase activity (heme oxygenase): induced | Activation of OR5K1 (OR5K1): activated

Compound: CC1(C)C2CCC1(CS(=O)(=O)O)C(=O)C2 (centres unmarked) [camphorsulfonic acid]
Olfr57 activation (cAMP-mediated response), in words (Olfr57): did not elicit a cAMP-mediated response; also recorded: non-activators

Compound: O=C(O)CCCCCCCC(=O)O [azelaic acid]
Activation of Olfr544 (Olfr544): activated

EC50 (Olfr177): 1670 µM
Compound: CCc1nccnc1C [2-ethyl-3-methylpyrazine]

Compound: CC1=CC[C@@]23CC1C(C)(C)[C@@H]2CC[C@H]3C [α-cedrene]
Activation of Olfr16 and OR10J5 [1]: activated
